From paper PMC12636382, “Human and zebrafish mineralocorticoid receptors reporter cell assays to assess the activity of chemicals” (iScience, 2025)
pEC50, pIC50: −log10 of the molar value. Where “and” joins values, the source holds several entries; their conditions need not be identical. Equal entries are not always repeated. Where two headings read alike, the source gives them in different places.

Legend:
human MR (hMR) = target: T1, human MR (hMR) (Homo sapiens, UniProt P08235); assay: UG5LN-GAL4-hMR luciferase reporter cell assay (agonism and antagonism tests); type: cell-based; settings: for % min act: % of maximal luciferase activity induced by 10^−8 M aldosterone
T1 construct: hMR(LBD) (G671-K894) and zfMR(LBD) (L668-K970) have been amplified by PCR; expressed in transfected cells
T1 sequence (P08235 671-984 limits assumed): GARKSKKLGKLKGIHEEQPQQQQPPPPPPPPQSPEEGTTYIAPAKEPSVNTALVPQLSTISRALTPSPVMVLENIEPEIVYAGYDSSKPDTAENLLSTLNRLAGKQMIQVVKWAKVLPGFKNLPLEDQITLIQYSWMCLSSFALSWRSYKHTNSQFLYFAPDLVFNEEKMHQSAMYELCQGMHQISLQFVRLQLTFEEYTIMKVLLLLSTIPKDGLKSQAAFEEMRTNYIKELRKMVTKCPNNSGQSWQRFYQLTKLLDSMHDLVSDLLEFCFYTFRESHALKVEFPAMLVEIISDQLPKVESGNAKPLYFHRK
Method: (§1) The U2OS cells used to establish the MR reporter cell lines were obtained from and verified by ECACC (UK Health Security Agency, Porton Down, Salisbury, UK). The strategy used has been described previously to establish other NR-based cell lines.[42] First, the different pSG5-GAL4(DBD)-MRs (LBD) and (GAL4RE)5βGlob-Luc-SVNeo plasmids were tested by transient transfections in U2OS. Then, the UG5LN-GAL4-hMR and UG5LN-GAL4-zfMR clonal cells were generated in two steps. The first step was to establish clonal UG5LN cells by a stable transfection of U2OS cells, considered as steroid receptor negative, with the plasmid (GAL4RE)5βGlob-Luc-SVNeo. The second step consisted of the transfection of UG5LN cells with the plasmids pSG5-GAL4(DBD)-hMR(LBD)-puro, pSG5-GAL4(DBD)-hMRT870L(LBD)-puro or pSG5-GAL4(DBD)-zfMR(LBD)-puro, to generate UG5LN-GAL4-hMR, UG5LN-GAL4-hMRT870L and UG5LN-GAL4-zfMR clonal cells, respectively. Stable cell clones were selected in the presence of puromycin 0.5 μg/mL and G418 1 mg/mL. For each receptor, 5 to 10 clones were chosen for their ligand-induced luciferase expression. The clones were amplified and luciferase expression was checked at several passages. For each receptor, the clone with the best induction of luciferase activity was selected and used for the screening of the different chemicals. The stability and the inducibility of luciferase expression were checked during at least 20 passages (20 weeks).
(§2) To perform the reporter gene assay, cells were seeded in 96-wells white transparent culture plates (Greiner bio-one 655098CellStar; Dutscher, Brumath, France) at a density of 60,000 cells per well in 150 μL of culture medium and incubated at 37°C and 5% CO2 for 24 h. Then, after the attachment period, medium was removed and cells were exposed to increasing dilutions of the tested compounds in the experimental medium (DMSO; final concentration 0.1% v/v for chemicals and 0.3% v/v for water sample extracts) and incubated at 37°C and 5% CO2. After 24 h, medium was removed and replaced with 50 μL/well of experimental medium containing 0.3 mM luciferin. The luminescence signal was monitored in intact live cells for 2 s per well using a MicroBeta Wallac luminometer (PerkinElmer, Courtaboeuf, France). All experiments were performed in quadruplicate.
(§3) The quantification and statistical analysis are integral parts of the software used (GraphPad Prism 10, GraphPad Software Inc). The compounds were tested at different concentrations in at least three independent experiments. In each experiment, the compounds were tested in quadruplicate for each concentration, and the data were expressed as averages of the quadruplicates with their standard deviation to obtain a single value for that experimental series. Then, individual dose-response curves for each chemical were fitted from the averages of the three individual experiments using the sigmoidal dose-response function of the graphics and statistics software program GraphPad. Specifically, GraphPad employs nonlinear regression with the least squares method to fit the data to a sigmoidal function (based on the Hill equation). This method is used to determine the optimal parameter values, such as the Half Maximal Effective concentration (EC50) for agonist and the Half Maximal Inhibitory Concentration (IC50) for antagonist. […] Once the best-fit curve was obtained, the confidence intervals (e.g., 95% CI) for these parameters were estimated based on the uncertainty (variance) derived from the regression model, and the lower and upper 95% confidence limits of EC50s and IC50s were reported.

zebrafish MR (zfMR) = zebrafish MR (zfMR) (Danio rerio, UniProt A6YIH7); assay: UG5LN-GAL4-zfMR luciferase reporter cell assay (agonism and antagonism tests); type: cell-based; settings: for pEC50: agonism test, chemical alone, mean of at least three experiments, read-out: EC50
Sequence of zebrafish MR (zfMR) (A6YIH7 entry or part of it): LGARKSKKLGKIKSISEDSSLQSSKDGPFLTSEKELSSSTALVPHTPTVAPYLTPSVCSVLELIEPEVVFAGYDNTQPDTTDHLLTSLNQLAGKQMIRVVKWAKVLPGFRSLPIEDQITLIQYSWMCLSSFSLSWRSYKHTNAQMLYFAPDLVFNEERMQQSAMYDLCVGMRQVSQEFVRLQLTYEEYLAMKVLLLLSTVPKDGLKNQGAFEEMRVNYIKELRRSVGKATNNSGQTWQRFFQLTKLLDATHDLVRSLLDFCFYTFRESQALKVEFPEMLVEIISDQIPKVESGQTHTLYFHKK
Method: as §1, §2, §3

[1] = antagonism test, in presence of aldosterone 10^−9 M, UG5LN-GAL4-hMR cells, read-out: IC50
[2] = in words, UG5LN-GAL4-zfMR cells
[3] = environmental chemicals at 10^−5 M, antagonism test
[4] = environmental chemicals, antagonism test with aldosterone 10^−9 M, UG5LN-GAL4-hMR, read-out: IC50
[5] = environmental chemicals, antagonism test with aldosterone 0.5 10^−9 M, UG5LN-GAL4-zfMR, read-out: IC50
[6] = antagonism test, in presence of aldosterone 0.5 10^−9 M, UG5LN-GAL4-zfMR cells, read-out: IC50
[7] = antagonism test with aldosterone 10^−9 M, at 10^−5, 10^−6 or 10^−7 M depending on chemical

Compound | activity profile on zfMR (agonist / partial agonist / antagonist) (zebrafish MR (zfMR); [2]) | % min act (human MR (hMR); [3]) | pIC50 (human MR (hMR); [4]) | % min act (zebrafish MR (zfMR)) | pIC50 (zebrafish MR (zfMR); [5]) | other results
C[C@]12CCC(=O)C=C1CC[C@@H]1[C@@H]2CC[C@@]2(C)[C@H]1CC[C@]2(O)C(=O)CO [11-deoxycortisol] | partially activate | – | – | – | – | pIC50 (human MR (hMR); [1]): 8.36; activity profile on hMR (agonist / partial agonist / antagonist) (human MR (hMR); in words, UG5LN-GAL4-hMR cells): complete antagonists; pEC50 (zebrafish MR (zfMR); UG5LN-GAL4-zfMR cells): 9.14; REP (relative potency) (zebrafish MR (zfMR); ratio of EC50 values aldosterone/chemical, aldosterone set at 1): 0.41
C[C@]12CCC(=O)C[C@@H]1CC[C@@H]1[C@@H]2CC[C@]2(C)[C@@H](O)CC[C@@H]12 [dihydrotestosterone] | – | – | – | – | – | activity profile on hMR (agonist / partial agonist / antagonist) (human MR (hMR)): full antagonists; pIC50 (human MR (hMR); IC50): 7.22; activity profile on zfMR (agonist / partial agonist / antagonist) (zebrafish MR (zfMR)): full antagonists; pIC50 (zebrafish MR (zfMR); IC50): 7.46
Nonylphenol mixture | – | 12 ± 2.5% | 5.81 | 40.7 ± 4.8% | 5.04 | –
Bisphenol C | – | 51 ± 6% | 4.88 | – | 4.93 | –
O=C1C2(Cl)C3(Cl)C4(Cl)C(Cl)(Cl)C5(Cl)C3(Cl)C1(Cl)C5(Cl)C24Cl (stereo not shown) [chlordecone] | – | 8.4 ± 1% | 5.92 | 28.6 ± 0.3% | 5.25 | –
C[C@]12CCC(=O)C=C1C=C[C@@H]1[C@@H]2CC[C@@]2(C)[C@H]1CC[C@@]21CCC(=O)O1 [canrenone] | full antagonists | – | – | – | – | pIC50 (human MR (hMR); [1]): 7.77 and 7.78; activity profile on hMR (agonist / partial agonist / antagonist) (human MR (hMR); in words, UG5LN-GAL4-hMR cells): full antagonists; pIC50 (zebrafish MR (zfMR); [6]): 7.74
CC(=O)[C@H]1CC[C@H]2[C@@H]3CC=C4C[C@@H](O)CC[C@]4(C)[C@H]3CC[C@]12C [pregnenolone] | full antagonists | – | – | 4.1 ± 0.2% | – | % min act (human MR (hMR); [7]): 6.0 ± 1%; pIC50 (human MR (hMR); [1]): 7.17; activity profile on hMR (agonist / partial agonist / antagonist) (human MR (hMR); in words, UG5LN-GAL4-hMR cells): full antagonists; pIC50 (zebrafish MR (zfMR); [6]): 6.78
17α-hydroxyprogesterone [17α-hydroxy progesterone] | full agonists | – | – | – | – | % max act (zebrafish MR (zfMR)): 97.6 ± 1.2%; pEC50 (zebrafish MR (zfMR); UG5LN-GAL4-zfMR cells, listed as 17-α-hydroxy progesterone): 9.62; pEC50 (zebrafish MR (zfMR); UG5LN-GAL4-zfMR cells, listed as 17α-hydroxyprogesterone): 9.70
CC(C)(c1ccc(O)cc1)c1ccc(O)cc1 [bisphenol A, Bisphenol A] | – | – | 5.64 | – | 5.29 | –
CC#C[C@]1(O)CC[C@H]2[C@@H]3CCC4=CC(=O)CCC4=C3[C@@H](c3ccc(N(C)C)cc3)C[C@@]21C [mifepristone] | full antagonists | – | – | – | – | activity profile on hMR (agonist / partial agonist / antagonist) (human MR (hMR); in words, UG5LN-GAL4-hMR cells): full antagonists; pIC50 (zebrafish MR (zfMR); [6]): 5.98
CC(C)(C)CC(C)(C)c1ccc(O)cc1 [4-tert-octylphenol] | – | – | 5.67 | – | 4.80 | –
O=S1OCC2C(CO1)C1(Cl)C(Cl)=C(Cl)C2(Cl)C1(Cl)Cl (stereo not shown) [endosulfan] | – | – | 6.00 | – | 5.08 | –
Oc1ccc(C(c2ccc(O)cc2)C(Cl)(Cl)Cl)cc1 [HPTE] | – | 12.3 ± 1.5% | 5.69 | 51 ± 6.8% | 4.95 | –
ClC(Cl)=C(c1ccc(Cl)cc1)c1ccccc1Cl [2,4′-DDE, 2,4′DDE] | – | 8.3 ± 1.2% | 6.33 | 34.8 ± 6.6% | 5.16 | –
ClC1=C(Cl)[C@]2(Cl)[C@H]3[C@H]([C@H](Cl)C(Cl)[C@@H]3Cl)[C@@]1(Cl)C2(Cl)Cl (stereo partly shown) [transnonachlore] | – | 10 ± 0.9% | 6.21 | 57.8 ± 9% | – | –
ClC1=C(Cl)C2(Cl)C3C4C=CC(C4)C3C1(Cl)C2(Cl)Cl (stereo not shown) [aldrin] | – | – | 6.41 | – | 5.66 | –
C=CC(C)(O)C(=O)Nc1cc(Cl)cc(Cl)c1 (stereo not shown) [vinclozoline M2, Vinclozolin M2] | – | 28 ± 3.3% | 5.22 | 31 ± 0.5% | 5.15 | –
CC(=O)[C@H]1CC[C@H]2[C@@H]3CCC4=CC(=O)CC[C@]4(C)[C@H]3CC[C@]12C [progesterone] | partially activate | – | – | – | – | –
CCCOCCN(C(=O)CCl)c1c(CC)cccc1CC [pretilachlore] | – | 21.5 ± 1.7% | 5.45 | 21 ± 0.7% | 5.33 | –
CC(C)(c1ccc(O)cc1)c1ccc(O)c(Cl)c1 [2-chloro-bisphenol A] | – | 12 ± 8.7% | 5.87 | – | 5.37 | % min act (zebrafish MR (zfMR); environmental chemicals at 10^−5 M, antagonism test, % of maximal luciferase activity induced by 10^−8 M aldosterone): 13.2 ± 1.3%
CCC(=O)[C@@]1(C)CC[C@H]2[C@@H]3CCC4=CC(=O)CCC4=C3CC[C@@]21C [promegestone] | full antagonists | – | – | – | – | pIC50 (human MR (hMR); [1]): 6.77; activity profile on hMR (agonist / partial agonist / antagonist) (human MR (hMR); in words, UG5LN-GAL4-hMR cells): full antagonists; pIC50 (zebrafish MR (zfMR); [6]): 6.54
dihydroprogesterone | full antagonists | – | – | 5 ± 0.5% | – | % min act (human MR (hMR); [7]): 11 ± 2%; pIC50 (human MR (hMR); [1]): 6.40; activity profile on hMR (agonist / partial agonist / antagonist) (human MR (hMR); in words, UG5LN-GAL4-hMR cells): full antagonists; pIC50 (zebrafish MR (zfMR); [6]): 6.73
